# Reference: article PMC10930102 (Journal of Enzyme Inhibition and Medicinal Chemistry, 2024)
# What was measured:
# HDAC6 = molecular target: T1, HDAC6 (Homo sapiens, UniProt Q9UBN7); assay: HDAC inhibition assay (fluorogenic peptide, Reaction Biology); type: biochemical; conditions: tested once, ten-dose starting at 30 µM
# T1 construct: purchased Reaction Biology Corporation; host or cells: baculovirus expression system in SF9 cells
# T1 sequence (Q9UBN7 1-1215): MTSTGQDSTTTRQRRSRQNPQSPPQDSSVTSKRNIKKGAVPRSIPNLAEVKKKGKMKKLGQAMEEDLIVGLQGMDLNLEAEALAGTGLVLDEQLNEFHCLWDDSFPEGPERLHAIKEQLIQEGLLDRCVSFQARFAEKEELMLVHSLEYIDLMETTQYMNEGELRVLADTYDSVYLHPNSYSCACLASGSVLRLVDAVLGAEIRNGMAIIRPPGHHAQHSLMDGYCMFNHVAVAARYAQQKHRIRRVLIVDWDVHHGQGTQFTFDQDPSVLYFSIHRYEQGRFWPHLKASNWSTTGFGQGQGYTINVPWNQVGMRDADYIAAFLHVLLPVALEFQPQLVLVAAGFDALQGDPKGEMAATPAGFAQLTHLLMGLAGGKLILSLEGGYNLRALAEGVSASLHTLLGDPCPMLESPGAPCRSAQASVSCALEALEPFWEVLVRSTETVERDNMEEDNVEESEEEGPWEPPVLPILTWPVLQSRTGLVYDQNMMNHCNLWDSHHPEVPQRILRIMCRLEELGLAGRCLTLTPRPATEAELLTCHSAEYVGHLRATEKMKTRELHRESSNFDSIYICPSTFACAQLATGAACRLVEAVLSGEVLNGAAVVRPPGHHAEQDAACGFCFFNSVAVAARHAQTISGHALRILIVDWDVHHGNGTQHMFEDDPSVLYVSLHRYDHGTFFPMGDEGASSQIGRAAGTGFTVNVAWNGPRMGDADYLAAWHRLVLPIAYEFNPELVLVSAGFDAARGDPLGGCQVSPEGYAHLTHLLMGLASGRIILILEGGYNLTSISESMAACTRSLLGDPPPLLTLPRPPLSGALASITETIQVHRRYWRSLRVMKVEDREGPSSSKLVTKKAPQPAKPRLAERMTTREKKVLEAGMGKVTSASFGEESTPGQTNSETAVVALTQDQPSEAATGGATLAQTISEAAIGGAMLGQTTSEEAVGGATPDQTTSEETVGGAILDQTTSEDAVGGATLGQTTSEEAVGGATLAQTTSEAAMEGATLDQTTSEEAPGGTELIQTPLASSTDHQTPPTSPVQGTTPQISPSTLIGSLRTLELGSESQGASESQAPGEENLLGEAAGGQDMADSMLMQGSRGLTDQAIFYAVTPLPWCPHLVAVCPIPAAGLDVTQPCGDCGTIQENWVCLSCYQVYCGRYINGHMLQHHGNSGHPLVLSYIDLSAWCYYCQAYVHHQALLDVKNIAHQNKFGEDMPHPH
# hERG = molecular target: T2, hERG (Homo sapiens, UniProt Q12809); assay: hERG binding competition assay (Predictor hERG Tracer Red); conditions: binding competition with fluorescent tracer
# T2 construct: purchased
# A549 = assay: SRB antiproliferation assay; type: cell-based; conditions: Homo sapiens, 48 h, read-out: Antiproliferative activity (IC50) A549
# CYP2C19 = molecular target: T3, CYP2C19 (Homo sapiens, UniProt P33261); assay: CYP450 inhibition assay; type: in vitro ADME; conditions: human recombinant enzyme
# T3 construct: purchased Reaction Biology Corporation; host or cells: CYP cDNA baculovirus expression systems
# Description: Assays were performed by Reaction Biology Corporation. […] CYP assays used human recombinant CYP1A2, CYP2C9, CYP2C19, CYP2D6, and CYP3A4 expressed in CYP cDNA baculovirus expression systems. […] Substrates used were 3-cyano-7-ethoxycoumarin for CYP1A2, 2C19, and 2D6; Vivid OOMR Substrate for CYP2C9; and Vivid BOMR Substrate for CYP3A4. hERG inhibition assays involved a binding competition between the tested compounds and a fluorescently labelled compound tracer (Predictor hERG Tracer Red) for membrane-bound hERG (Predictor hERG Membrane). E-4031 served as the positive control.
# CYP2D6 = molecular target: T4, CYP2D6 (Homo sapiens, UniProt P10635); assay: CYP450 inhibition assay; type: in vitro ADME; conditions: human recombinant enzyme
# T4 construct: purchased Reaction Biology Corporation; host or cells: CYP cDNA baculovirus expression systems
# c-Src = molecular target: T5, c-Src (Homo sapiens, UniProt P12931); assay: RTK in vitro enzymatic assay; type: biochemical; conditions: 20 μM ATP
# T5 construct: purchased Reaction Biology Corporation
# ALK G1269A = molecular target: T6, ALK G1269A (Homo sapiens, UniProt Q9UM73, G1269A); assay: ALK mutant in vitro enzymatic assay; type: biochemical; conditions: 20 μM ATP
# T6 construct: purchased Reaction Biology Corporation
# JAK2 = molecular target: T7, JAK2 (Homo sapiens, UniProt O60674); assay: RTK in vitro enzymatic assay; type: biochemical; conditions: 20 μM ATP
# T7 construct: purchased Reaction Biology Corporation
# MCF7 = assay: SRB antiproliferation assay; type: cell-based; conditions: Homo sapiens, 48 h, read-out: Antiproliferative activity (IC50) MCF7
# [1] = system: protein expression level of HDAC1, HDAC6, or HDAC8; assay: Western blot of HDAC protein expression; type: cell-based, human; conditions: western blot after treatment (supplemental Figure S3)
# Description: Treated cells were washed three times with ice-cold phosphate-buffered saline and lysed in lysis buffer containing 100 mM Tris-HCl, 12 mM sodium deoxycholate, 12 mM sodium lauroylsarcosinate, and protease inhibitor cocktail (BioTools). Cells were heated in lysis buffer at 95 °C for 5 min and then the cell membrane was broken up by sonication (Bioruptor). Cellular debris and unbroken cells were removed by centrifugation (12,500 × g for 30 min, 4 °C). Protein concentration was determined using the bicinchoninic acid assay (Thermo). Cell extracts (20 μg) were resolved by 12% sodium dodecyl sulfate-polyacrylamide gel electrophoresis (SDS-PAGE), transferred to PVDF membranes, and probed separately with antibodies for Ac-histone H3, Ac-α-tubulin, histone H3, α-tubulin, HDAC1, HDAC6, HDAC8 and GAPDH. The antibodies of GAPDH, HDAC1, and HDAC8 were purchased from ABclonal and all other antibodies were from Cell Signalling Technology. Antibody signals were detected using an enhanced chemiluminescence system.
# Figure S3. Western blots of HDAC1, HDAC6, and HDAC8 after drug treatment and vehicle control
# activity was assessed by MTS assay, and the concentration of inhibitors was determined to be half of their
# was tested five times, and the results were normalized to 1. (blank) […]
# IGF1R = molecular target: T8, IGF1R (Homo sapiens, UniProt P08069); assay: RTK in vitro enzymatic assay; type: biochemical; conditions: 20 μM ATP
# T8 construct: purchased Reaction Biology Corporation
# T8 sequence (P08069 31-1367): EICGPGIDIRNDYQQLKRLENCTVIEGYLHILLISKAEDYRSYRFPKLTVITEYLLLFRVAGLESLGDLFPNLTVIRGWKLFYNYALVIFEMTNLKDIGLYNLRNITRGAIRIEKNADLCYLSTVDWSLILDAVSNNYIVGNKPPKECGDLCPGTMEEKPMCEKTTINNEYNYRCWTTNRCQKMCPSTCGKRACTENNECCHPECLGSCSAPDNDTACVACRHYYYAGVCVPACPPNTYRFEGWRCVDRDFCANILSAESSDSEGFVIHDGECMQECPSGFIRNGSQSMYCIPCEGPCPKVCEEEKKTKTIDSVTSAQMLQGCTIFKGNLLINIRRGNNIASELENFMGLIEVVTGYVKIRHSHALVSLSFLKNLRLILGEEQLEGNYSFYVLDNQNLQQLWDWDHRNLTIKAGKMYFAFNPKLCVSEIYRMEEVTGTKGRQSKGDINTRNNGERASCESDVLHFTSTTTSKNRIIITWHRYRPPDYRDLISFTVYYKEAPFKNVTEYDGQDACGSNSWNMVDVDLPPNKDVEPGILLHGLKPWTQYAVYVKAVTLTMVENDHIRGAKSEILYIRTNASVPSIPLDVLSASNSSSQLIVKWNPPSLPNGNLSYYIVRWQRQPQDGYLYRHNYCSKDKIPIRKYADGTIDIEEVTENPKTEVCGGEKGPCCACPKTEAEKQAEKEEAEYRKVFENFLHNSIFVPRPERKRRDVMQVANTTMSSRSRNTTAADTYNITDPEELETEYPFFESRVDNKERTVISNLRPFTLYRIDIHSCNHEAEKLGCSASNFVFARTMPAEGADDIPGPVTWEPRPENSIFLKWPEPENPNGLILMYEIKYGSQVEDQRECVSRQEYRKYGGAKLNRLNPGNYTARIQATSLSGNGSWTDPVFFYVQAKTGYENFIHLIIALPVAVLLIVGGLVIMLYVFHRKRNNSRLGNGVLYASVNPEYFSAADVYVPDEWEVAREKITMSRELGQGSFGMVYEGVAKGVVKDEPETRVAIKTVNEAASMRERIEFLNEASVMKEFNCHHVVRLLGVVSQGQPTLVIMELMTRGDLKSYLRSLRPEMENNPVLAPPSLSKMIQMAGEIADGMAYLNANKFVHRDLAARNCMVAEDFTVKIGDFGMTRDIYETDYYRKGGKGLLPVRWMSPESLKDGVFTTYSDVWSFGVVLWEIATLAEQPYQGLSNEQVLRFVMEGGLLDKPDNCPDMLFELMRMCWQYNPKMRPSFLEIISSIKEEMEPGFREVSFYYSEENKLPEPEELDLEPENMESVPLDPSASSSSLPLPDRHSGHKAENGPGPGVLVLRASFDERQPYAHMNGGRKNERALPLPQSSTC
# T2 sequence (Q12809 whole entry): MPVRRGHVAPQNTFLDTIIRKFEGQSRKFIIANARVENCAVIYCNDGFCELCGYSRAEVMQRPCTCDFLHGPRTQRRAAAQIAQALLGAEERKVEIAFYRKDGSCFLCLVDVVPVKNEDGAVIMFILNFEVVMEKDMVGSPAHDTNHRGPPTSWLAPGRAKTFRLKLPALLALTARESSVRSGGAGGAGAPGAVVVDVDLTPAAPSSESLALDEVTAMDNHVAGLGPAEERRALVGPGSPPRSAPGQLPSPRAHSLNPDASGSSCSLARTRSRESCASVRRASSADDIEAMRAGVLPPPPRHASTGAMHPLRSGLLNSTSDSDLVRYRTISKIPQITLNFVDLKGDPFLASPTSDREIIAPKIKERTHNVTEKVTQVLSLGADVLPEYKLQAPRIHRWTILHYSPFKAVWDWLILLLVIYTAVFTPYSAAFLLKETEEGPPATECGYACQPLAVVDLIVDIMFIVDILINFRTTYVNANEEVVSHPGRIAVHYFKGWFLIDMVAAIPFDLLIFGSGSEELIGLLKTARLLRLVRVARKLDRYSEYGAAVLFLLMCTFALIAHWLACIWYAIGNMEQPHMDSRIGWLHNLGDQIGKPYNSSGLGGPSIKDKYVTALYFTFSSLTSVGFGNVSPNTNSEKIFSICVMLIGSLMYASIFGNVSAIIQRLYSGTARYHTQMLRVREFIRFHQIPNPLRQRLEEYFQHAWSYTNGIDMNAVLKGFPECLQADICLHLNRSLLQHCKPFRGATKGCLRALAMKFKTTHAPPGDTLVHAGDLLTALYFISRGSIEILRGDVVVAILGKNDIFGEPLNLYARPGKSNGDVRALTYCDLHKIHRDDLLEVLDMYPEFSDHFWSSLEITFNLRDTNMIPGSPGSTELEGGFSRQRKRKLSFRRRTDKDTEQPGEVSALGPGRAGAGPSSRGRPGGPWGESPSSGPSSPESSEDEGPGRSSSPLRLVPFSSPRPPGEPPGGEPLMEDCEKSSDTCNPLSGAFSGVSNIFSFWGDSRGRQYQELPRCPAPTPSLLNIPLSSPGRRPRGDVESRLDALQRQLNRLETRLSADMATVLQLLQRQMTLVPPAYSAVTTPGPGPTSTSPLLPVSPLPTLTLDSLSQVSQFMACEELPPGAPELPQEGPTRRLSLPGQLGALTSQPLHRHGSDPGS
# T5 sequence (P12931 whole entry): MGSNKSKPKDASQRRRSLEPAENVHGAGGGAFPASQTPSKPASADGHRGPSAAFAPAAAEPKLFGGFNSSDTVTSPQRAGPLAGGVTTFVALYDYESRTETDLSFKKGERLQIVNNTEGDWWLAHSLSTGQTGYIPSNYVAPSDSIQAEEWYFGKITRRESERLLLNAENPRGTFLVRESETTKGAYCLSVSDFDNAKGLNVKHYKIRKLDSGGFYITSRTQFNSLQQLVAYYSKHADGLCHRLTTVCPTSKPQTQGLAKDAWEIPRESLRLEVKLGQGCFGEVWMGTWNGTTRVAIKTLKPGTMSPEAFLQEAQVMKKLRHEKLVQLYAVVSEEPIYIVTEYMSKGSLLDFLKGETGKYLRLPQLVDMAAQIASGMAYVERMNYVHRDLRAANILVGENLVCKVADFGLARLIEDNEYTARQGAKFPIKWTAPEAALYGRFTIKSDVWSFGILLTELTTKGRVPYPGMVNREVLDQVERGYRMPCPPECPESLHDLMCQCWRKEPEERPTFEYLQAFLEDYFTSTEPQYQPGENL
# T4 sequence (P10635 whole entry): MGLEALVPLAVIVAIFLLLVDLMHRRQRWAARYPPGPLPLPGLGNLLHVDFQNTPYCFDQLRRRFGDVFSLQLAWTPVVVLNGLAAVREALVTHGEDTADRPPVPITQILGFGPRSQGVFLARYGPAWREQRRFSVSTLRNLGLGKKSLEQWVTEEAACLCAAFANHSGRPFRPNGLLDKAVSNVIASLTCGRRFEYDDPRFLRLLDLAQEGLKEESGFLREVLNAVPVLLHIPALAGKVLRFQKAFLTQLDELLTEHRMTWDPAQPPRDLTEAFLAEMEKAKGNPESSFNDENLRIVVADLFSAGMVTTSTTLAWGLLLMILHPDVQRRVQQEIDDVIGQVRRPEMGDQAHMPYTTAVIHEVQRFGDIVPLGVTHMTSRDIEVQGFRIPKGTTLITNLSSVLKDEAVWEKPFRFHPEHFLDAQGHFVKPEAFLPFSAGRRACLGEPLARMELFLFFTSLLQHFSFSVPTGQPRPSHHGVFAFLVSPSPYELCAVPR
# T3 sequence (P33261 whole entry): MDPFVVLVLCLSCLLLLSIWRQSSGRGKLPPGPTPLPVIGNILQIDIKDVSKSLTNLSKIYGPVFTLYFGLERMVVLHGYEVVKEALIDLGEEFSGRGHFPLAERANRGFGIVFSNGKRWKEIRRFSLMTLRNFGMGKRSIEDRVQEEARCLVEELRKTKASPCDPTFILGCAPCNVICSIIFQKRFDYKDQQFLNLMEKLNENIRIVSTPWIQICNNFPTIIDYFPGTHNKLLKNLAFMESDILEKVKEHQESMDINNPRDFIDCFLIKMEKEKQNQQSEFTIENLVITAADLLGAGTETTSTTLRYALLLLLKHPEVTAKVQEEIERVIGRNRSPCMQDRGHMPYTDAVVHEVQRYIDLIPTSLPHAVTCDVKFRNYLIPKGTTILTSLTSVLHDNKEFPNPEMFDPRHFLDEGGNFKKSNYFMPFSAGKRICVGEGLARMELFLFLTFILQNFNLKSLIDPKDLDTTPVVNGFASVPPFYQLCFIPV
structure (smiles),measurement,setting,value
"CC(C)NC(=O)C1CCC(n2c(=NC(=O)c3ccccc3)[nH]c3cc(C=CC(=O)NO)ccc32)CC1 [Compound 3b, (E)-N-(5-((E)-3-(Hydroxyamino)-3-oxoprop-1-en-1-yl)-1-((1S,4S)-4-(isopropylcarbamoyl)cyclohexyl)-1H-benzo[d]imidazol-2(3H)-ylidene)benzamide]",IC50,HDAC6,1.03 µM
same,IC50,hERG,> 10 µM
same,IC50 hERG,hERG,no inhibitory affect
same,IC50,A549,0.33 ± 0.03 µM
same,IC50,CYP2C19,7.86 µM
same,IC50,CYP2D6,> 10 µM
same,IC50,c-Src,3.38 µM
same,IC50,ALK G1269A,0.05 µM
same,IC50,JAK2,> 10 µM
same,IC50,MCF7,0.55 ± 0.01 µM
same,"protein expression level of HDAC1, HDAC6, or HDAC8",[1],not perturbed
same,IC50,IGF1R,4.84 µM
